# Results taken from US10537097B2, “Methods for treating red blood cells” (VIACELL, LLC., priority 2010, dated 2020).
# Legend:
# [1] = Solubility of nucleoside / concentrated composition; format: physicochemical; settings: with L-arginine in an equimolecular solution; room temperature
# [2] = test system: stored RBCs; assay: 2,3-DPG level of stored RBCs after incubation with storage and/or rejuvenating composition (Roche 2,3-DPG kit); format: cell-based; settings: 60 minutes at 37° C.
# Experimental: A storage and/or rejuvenating composition that includes D-ribose, inosine, sodium pyruvate, and inorganic phosphate, all at a 300 mM concentration as a slurry was prepared. When used to store and/or rejuvenate RBCs, the slurry is diluted 30-fold to a final concentration of 10 mM to form a solution. […] In a study, RBCs were collected and stored for an average of 21 days at 4° C. according to standard blood banking practice. Various RBC storage and/or rejuvenating compositions were added to the 21-day old stored RBCs and held at 37° C. for one to four hours before being tested for 2,3-DPG concentrations. […] A normal 2,3-DPG concentration of RBC immediately upon harvest is 4.0 μmol/ml. […] An increase to 1.0 μmol/ml is considered a significant improvement.
structure (smiles),measurement,setting,value
OC[C@H]1O[C@@H](n2cnc3c(O)ncnc32)[C@H](O)[C@@H]1O [inosine],Concentration at which inosine remained in solution,[1],above 50 mM
Nc1nc2c(ncn2[C@@H]2O[C@H](CO)[C@@H](O)[C@H]2O)c(=O)[nH]1 [Guanosine],"2,3-DPG","[2]; 1 mM guanosine with 10 mM each inorganic phosphate and D-ribose, no sodium pyruvate",0.47 µmol/mL
same,"2,3-DPG","[2]; 5 mM guanosine with 10 mM each inorganic phosphate and D-ribose, no sodium pyruvate",1.30 µmol/mL
same,"2,3-DPG","[2]; 10 mM guanosine with 10 mM each inorganic phosphate and D-ribose, no sodium pyruvate",1.10 µmol/mL
same,Rejuvenation,"[2]; guanosine at indicated concentration with 10 mM each inorganic phosphate and D-ribose, no sodium pyruvate",Rejuvenation was observed
O=C[C@H](O)[C@H](O)[C@H](O)COP(=O)(O)O [ribose-5-phosphate],Rejuvenation,"[2]; varying concentrations replacing inosine, with 10 mM each D-ribose, sodium pyruvate, inorganic phosphate",Rejuvenation was not observed
